“Also recorded” adds a separate entry of the source. Like-named read-outs stand apart in the source and are kept apart here. Values belong to the compound of their own block, whether it stands above or below them.
Columns and labels:
[1] = Chemical stability in DMSO solution; assay type: physicochemical; conditions: for isomerization / hydrolysis / chemical instability in DMSO solution (in words): 28 days; for stability (% decrease): Table 3, % loss in purity when stored in DMSO solution for 28 days; for stability (% decrease) / stability (% decrease in purity): n = 1; for stability (% decrease in purity): Table 2, stored in DMSO solution for 28 days
Text: Although several compounds shown in Table 2 satisfy the rapid clearance requirements of a soft drug and retain primary activity, none were suitable for progression into in vivo studies due to chemical stability liabilities. […] The instability in solution represented a major development hurdle as topical drugs are usually stored in solution or suspensions (cream, ointment, paste, lotion, or gels), rather than in solid form, as is the case for oral drugs. We turned our attention to identifying the impurity and preventing its formation.
Decomposition studies used ^1H NMR to monitor the increase in the acetic acid methyl group peak over 28 days (see Supporting Information). […] However, the chemical stability was poor when heteroatoms were alpha to the carbonyl of the acetate group 10d,e, and these compound degraded on standing within 24 h, preventing full characterization.

[2] = Topical pharmacokinetic experiment in mice; assay type: in vivo; conditions: for Mean concentration in blood: female Balb/c mice, topical 10a 1% w/v, n=3, LLoQ = 1 ng/mL, scaled LLoQ 10 ng/mL; for concentration at 2 h / concentration at 8 h: female, Balb/c, mouse, 22.5 µL of 1% w/v 10a; for concentration at 2 h / concentration at 8 h / concentration in blood: mice, topical 22.5 μL of 1% 10a in propylene glycol/ethanol 7/3
[3] = Glutathione trapping experiment in human liver microsomes; assay type: in vitro ADME; conditions: 10 µM, 90 minutes
Protocol: Concentration (ng/mL) Scaled concentration (ng/mL) Mean concentration […]
Mouse 1 Mouse 2 Mouse 3 Mouse 1 Mouse 2 Mouse 3
2h-post application < LLoQ < LLoQ < LLoQ < LLoQ < LLoQ < LLoQ < LLoQ […]
Mouse 4 Mouse 5 Mouse 6 Mouse 4 Mouse 5 Mouse 6
8h-post application < LLoQ < LLoQ < LLoQ < LLoQ < LLoQ < LLoQ < LLoQ […]
Scaled LLoQ = dilution factor * LLoQ = 10*1 = 10 ng/mL
Skin concentrations for 10a
Test compound (10 µM) was incubated with 0.5 mg/mL human liver microsomes (Mixed Gender, Life Technologies) in 50 mM potassium phosphate buffer, pH 7.4 in the presence of either NADPH (8mg/mL) alone, glutathione alone or NADPH plus glutathione. Reactions are initiated by addition of 5 µL of 1 mM test compound (final concentration 10 µM, 1% solvent). Immediately, an aliquot (100 µL) of the incubation mixture was removed and mixed with acetonitrile (200 µL) to stop the reaction. A further 100 µL aliquot is removed at 90 minutes. After addition of 100 µL of water, the samples were centrifuged to sediment precipitated protein and the plates then sealed prior to analysis using a Xevo QTof Quadrupole Time-of-Flight Mass Spectrometer (Waters corporation, USA). Detection of metabolites is performed by analysis with MetabolynxXS and by manual data
(1 picture or pasted object on this page, not shown here)

[4] = Metabolite identification in human skin S9 fraction; assay type: in vitro ADME; conditions: incubation with human skin S9 fraction; n = 1
Text: (§1) Based on the stability of (Z,Z)-9k in DMSO over 28 days (Table 2), it is likely this hydrolysis is enzymatically driven. We then performed metabolite identification studies using (Z,Z)-9k in human hepatocytes to confirm the routes of clearance of our S1PR1 modulators.

[5] = NMR study of isomerisation after incubation in DMSO-d6 for 6 months; assay type: physicochemical; conditions: 1H NMR integration
Text: The NOESY spectrum of the mixture indicated no changes in the arrangement of the imine (no correlation was observed between H^11–H^19 or H^11′–H^19′).

[6] = Human liver hepatocyte stability, intrinsic clearance; assay type: in vitro ADME
Protocol: the exponential decay and consequently the rate constant (k) from the ratio of peak area of test compound to internal standard at each timepoint. The rate of intrinsic clearance (CLi) of each test compound was then calculated using the following calculation:
CLi (mL/min/g liver) = k x V x Microsomal protein yield
Where V (mL/mg protein) is the incubation volume/mg protein added and microsomal protein yield is taken as 52.5 mg protein per g liver. Verapamil (0.5 μM) was used as a positive control to confirm acceptable assay performance. Experiments were performed using a single timecourse experiment.
All values reported correspond to n of 1.
Human Liver Hepatocyte (HLH) stability experiments
Cryopreserved vials of human cryopreserved hepatocytes, supplied by Life Technologies, were thawed according to manufacturer’s instructions and cells resuspended in Williams Medium E (WME) containing cell maintenance supplement pack (CM4000, Life Technologies). Hepatocytes were incubated in suspension (0.5 million cells/mL) in 48 well non-collagen coated cell culture plates for 10 minutes at 37 °C, 5% CO 2. […] The response (area ratio of test compound to internal standard) was plotted against time using an exponential decay model and rate of disappearance calculated. […]
The half life (T½) of each test compound was determined using the following equation: […]

[7] = CHI logD by reverse-phase HPLC; assay type: physicochemical; conditions: compared to 4a
[8] = Metabolite identification in human hepatocytes; assay type: in vitro ADME; conditions: n = 1
Text: as §1

[9] = parameters: method as in PMID 20089952; conditions: 0.5 mg/day; cited from earlier work

SMILES: CCC/N=C1\S/C(=C\c2ccc(O)c(Br)c2)C(=O)N1c1ccccc1C [Compound 9f]
stability (% decrease in purity) [1]: 16%

SMILES: CCC/N=C1\S/C(=C\c2ccc(O)cc2)C(=O)N1c1ccccc1C [Compound 9j]
isomerization / hydrolysis / chemical instability in DMSO solution (in words) [1]: stable over a 28-day period
stability (% decrease in purity) [1]: 0%

SMILES: CCC/N=C1\S/C(=C\c2ccc(O)c(C(F)(F)F)c2)C(=O)N1c1ccccc1C [Compound 9g]
stability (% decrease in purity) [1]: 10%

SMILES: CCC/N=C1\S/C(=C\c2ccc(O)c(C#N)c2)C(=O)N1c1ccccc1C [Compound 9h]
impurity (E isomer) share of the mixture [5]: 32%
stability (% decrease in purity) [1]: 20%
H Heps Cl (intrinsic clearance in human liver hepatocytes) ([6]; 0.5 μM test compound, n = 1): <0.5 mL/min/g

SMILES: CCC/N=C1\S/C(=C\c2ccc(O)c(Cl)c2)C(=O)N1c1ccccc1O [Compound 4h]
reduction in CHIlogD [7]: 1.1 log units

SMILES: CCC/N=C1\S/C(=C\c2ccc(O)c(C)c2)C(=O)N1c1ccccc1C [Compound 9k]
Mean concentration in blood ([2]; 2h-post application): < LLoQ
Mean concentration in blood ([2]; 8h-post application): < LLoQ
concentration at 2 h ([2]; skin, 2 h, read-out: concentration in the skin): 134 µM
concentration at 8 h ([2]; skin, 8 h, read-out: concentration in the skin): 101 µM
concentration in blood ([2]; 2 h): LLoQ
concentration in blood ([2]; 8 h): LLoQ
metabolites identified [8]: glucuronide conjugation product, hydroxylation products, and hydroxylation with sulfation metabolites
stability (% decrease in purity) [1]: 3%
hepatic clearance as % liver blood flow ([6]; corresponds to intrinsic clearance 31 mL/min/g, if good in vitro to in vivo correlation): 97 % liver blood flow

SMILES: CCC/N=C1\S/C(=C\c2ccc(O)c(Cl)c2)C(=O)N1c1ccccc1C [Compound 4a]
stability (% decrease in purity) [1]: 6%

SMILES: CCC/N=C1\S/C(=C\c2ccc(O)c(C(C)C)c2)C(=O)N1c1ccccc1C [Compound 9l]
stability (% decrease in purity) [1]: 3%

SMILES: CCCCCCCCc1ccc(CCC(N)(CO)CO)cc1 [fingolimod]
steady state systemic concentration Cmax [9]: 3.1 ng/mL

SMILES: CCC/N=C1\S/C(=C\c2ccc(OC[C@H](O)CO)c(Cl)c2)C(=O)N1c1ccccc1C [ponesimod, reference compound]
stability (% decrease) [1]: 0%

SMILES: CCC/N=C1\S/C(=C\c2ccc(O)c(Cl)c2)C(=O)N1C1CCN(C)C(=O)C1 (stereo not drawn) [Compound 4f]
reduction in CHIlogD [7]: 3 log units

SMILES: CCC/N=C1\S/C(=C\c2ccc(O)cn2)C(=O)N1c1ccccc1C [Compound 9i]
stability (% decrease in purity) [1]: 4%

Further lines, with some results ahead:

stability (% decrease) [1]: 0%
SMILES: CCC/N=C1\S/C(=C\c2ccc(OC(=O)CCO)c(C)c2)C(=O)N1c1ccccc1C [Compound 10f]
isomerization / hydrolysis / chemical instability in DMSO solution (in words) [1]: did not isomerize; also recorded: instability was not an issue

Mean concentration in blood ([2]; 2h-post application): < LLoQ
Mean concentration in blood ([2]; 8h-post application): < LLoQ
concentration at 2 h ([2]; whole blood, 2 h, read-out: concentrations in blood): 8.8 µM
concentration at 8 h ([2]; whole blood, 8 h, read-out: concentrations in blood): 4.9 µM
concentration in blood ([2]; 2 h): LLoQ
concentration in blood ([2]; 8 h): LLoQ
stability (% decrease) [1]: 0%
SMILES: CCC/N=C1\S/C(=C\c2ccc(OC(C)=O)c(C)c2)C(=O)N1c1ccccc1C [Compound 10a]
glutathione adducts or derivatives [3]: no evidence of glutathione adducts or derivatives was observed
metabolites identified [4]: expected phenol (Z,Z)-9k was obtained after hydrolysis of the ester group: no other metabolites were observed
isomerization / hydrolysis / chemical instability in DMSO solution (in words) [1]: did not isomerize; also recorded: no hydrolysis or isomerization

stability (% decrease) [1]: 1.4%
SMILES: CCC/N=C1\S/C(=C\c2ccc(OC(C)=O)c(C(F)(F)F)c2)C(=O)N1c1ccccc1C [Compound 10c]

time within which compound degraded on standing ([1]; heteroatom alpha to the carbonyl of the acetate group): ≤ 24 h
SMILES: CCC/N=C1\S/C(=C\c2ccc(OC(=O)COC)c(C)c2)C(=O)N1c1ccccc1C [Compound 10d]

isomerization / hydrolysis / chemical instability in DMSO solution (in words) [1]: instability was not an issue
SMILES: CCC/N=C1\S/C(=C\c2ccc(OC(=O)CCOC)c(C)c2)C(=O)N1c1ccccc1C [Compound 10g]

stability (% decrease) [1]: 6.3%
SMILES: CCC/N=C1\S/C(=C\c2ccc(OC(C)=O)c(Br)c2)C(=O)N1c1ccccc1C [Compound 10b]

Reference: publication PMC6421539, “Discovery of Soft-Drug Topical Tool Modulators of Sphingosine-1-phosphate Receptor 1 (S1PR1)” (ACS Medicinal Chemistry Letters, 2019)
